Drawing on patent publication US10195185B2, “3-(1H-imidazo[4,5-C]pyridin-2-yl)-1H-pyrazolo[4,3-B]pyridines and therapeutic uses thereof” (Samumed, LLC, priority 2015, dated 2019), this text covers EC50, inhibition and Emax for eight compounds.

Common to all, as to type: cell-based
The test system of experiment [1] is IL-6 in human monocyte cell line (THP-1 cells). As to the kind of experiment: IL-6 inhibition in LPS-stimulated THP-1 cells (HTRF). Particulars: IL-6 in LPS-stimulated THP-1 cells; for EC50: HTRF; for inhibition at 10 µM: read-out: percent inhibition in brackets beside EC50 >10 μM. The essentials: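 Readout is the 665/620 nm HTRF ratio for secreted IL-6, normalized to DMSO wells, with EC50 from a variable-slope four-parameter fit, or % inhibition at 10 μM when above 10 μM. Cells (1% FBS, 24 h beforehand) got compound for 2 h, then LPS 500 ng/mL for 22 h at 37° C; top dose 10 μM, 0.1% DMSO.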
(TR-FRET usually uses a lanthanide donor and a delayed reading to cut background.)

Experiment [2] concerns SW480 colon cancer cells. As to the kind of experiment: Cell viability assay (CellTiter-Blue), four days. To be noted: Homo sapiens, 96 h; for inhibition at 10 µM: read-out: percent inhibition at 10 μM (given for EC50 of >10 μM); for EC50: CellTiter-Blue cell viability. The procedure, abridged: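 Four-day viability readout in SW480 cells: compound at 0.0045–10 μM (1:3 series), DMSO controls in eight replicates, CellTiter-Blue fluorescence after ~3 h. Values are regression-derived EC50s, or percent inhibition at 10 μM when EC50 exceeds 10 μM.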
On the technique in general: Resazurin is reduced to fluorescent resorufin, in cell work by metabolically active cells.

In experiment [3] the test system is primary human mesenchymal stem cells (hMSCs). As to the kind of experiment: Induction of chondrogenesis in hMSCs (nodule area, Rhodamine B / Nile Red). To be noted: TGF-β3 as positive control; for Emax: read-out: Max. Activity as % TGF-β3 activity; for EC50: concentration required to induce 50% levels of chondrogenesis, read-out: Conc (nM) of 50% TGF-β3 activity. The essentials: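 Primary hMSCs (passage 3–6) in incomplete chondrogenic induction medium were treated 6 days at 37° C. with 1:3 dilutions (2700–10 nM in 96-well or 5000–2.2 nM in 384-well; 0.03% DMSO). Rhodamine B/Nile Red-stained nodule area was imaged, normalized to DMSO wells, and EC50 was set against TGF-β3 (10 ng/mL).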

The inhibition is the share of the control response that was lost under treatment.

Some results are limits rather than exact numbers.

With `Oc1cncc(-c2ccc3[nH]nc(-c4nc5c(-c6cccc(F)c6)nccc5[nH]4)c3n2)c1` [Compound 517, 5-(3-(4-(3-Fluorophenyl)-1H-imidazo[4,5-c]pyridin-2-yl)-1H-pyrazolo[4,3-b]pyridin-5-yl)pyridin-3-ol], in experiment [1], the EC50 was over 10 µM and the inhibition at 10 µM came to 54.4%. Besides, in experiment [2], the inhibition at 10 µM was found to be 3.5% and the EC50 is over 10000 nM. Also, in experiment [3], the Emax was found to be 57% and the EC50 was 7 nM.
For the compound `CCCCC(=O)Nc1cncc(-c2ccc3[nH]nc(-c4nc5c(-c6cc(F)cc(NCCN(C)C)c6)nccc5[nH]4)c3n2)c1` [Compound 467, N-(5-(3-(4-(3-((2-(Dimethylamino)ethyl)amino)-5-fluorophenyl)-1H-imidazo[4,5-c]pyridin-2-yl)-1H-pyrazolo[4,3-b]pyridin-5-yl)pyridin-3-yl)pentanamide], in experiment [1], the EC50 is over 10 µM and the inhibition at 10 µM worked out at 33.1%. Further, in experiment [2], the inhibition at 10 µM was determined as 0% and the EC50 was over 10000 nM. Besides, in experiment [3], the Emax is 52% and the EC50 turned out to be 100 nM.
In the case of `Cc1ccc(-c2nccc3[nH]c(-c4n[nH]c5ccc(-c6cncc(N)c6)nc45)nc23)s1` [Compound 395, 5-(3-(4-(5-Methylthiophen-2-yl)-1H-imidazo[4,5-c]pyridin-2-yl)-1H-pyrazolo[4,3-b]pyridin-5-yl)pyridin-3-amine], the results for the EC50 in experiment [1], in experiment [2] and in experiment [3] were 0.142 µM, 156 nM and 10 nM, respectively. For the same compound, the Emax in experiment [3] amounted to 73%.
As to `CC(C)CC(=O)Nc1cncc(-c2ccc3[nH]nc(-c4nc5c(-c6cccc(F)c6)nccc5[nH]4)c3n2)c1` [Compound 2, N-(5-(3-(4-(3-Fluorophenyl)-1H-imidazo[4,5-c]pyridin-2-yl)-1H-pyrazolo [4,3-b]pyridin-5-yl)pyridin-3-yl)-3-methylbutanamide], in experiment [1], the EC50 was over 10 µM and the inhibition at 10 µM was 2.5%. The EC50 in experiment [2] was determined as 2700 nM. For the same compound, in experiment [3], the Emax came to 58% and the EC50 was found to be 21 nM.
Take `CN(C)c1cncc(-c2ccc3[nH]nc(-c4nc5c(-c6cccs6)nccc5[nH]4)c3n2)c1` [Compound 343, N,N-Dimethyl-5-(3-(4-(thiophen-2-yl)-1H-imidazo[4,5-c]pyridin-2-yl)-1H-pyrazolo[4,3-b]pyridin-5-yl)pyridin-3-amine]: the figures for the EC50 in experiment [1], in experiment [2] and in experiment [3] were 3.43 µM, 455 nM and 100 nM, respectively. In addition, in experiment [3], the Emax was 85%.
`Cn1cc(-c2ccc3[nH]nc(-c4nc5c(-c6cccc(F)c6)nccc5[nH]4)c3n2)cn1` [Compound 508, 3-(4-(3-Fluorophenyl)-1H-imidazo[4,5-c]pyridin-2-yl)-5-(1-methyl-1H-pyrazol-4-yl)-1H-pyrazolo[4,3-b]pyridine]: in experiment [1], the EC50 was over 10 µM and the inhibition at 10 µM turned out to be 0%. Also, the EC50 in experiment [2] was found to be 2200 nM. Besides, the Emax in experiment [3] came out at 43%.
For `NC1CN(c2cncc(-c3ccc4[nH]nc(-c5nc6c(-c7cccc(F)c7)nccc6[nH]5)c4n3)n2)C1` [Compound 510, 1-(6-(3-(4-(3-Fluorophenyl)-1H-imidazo[4,5-c]pyridin-2-yl)-1H-pyrazolo [4,3-b]pyridin-5-yl)pyrazin-2-yl)azetidin-3-amine], in that order: over 10 µM, 9.4%, 9290 nM and 36%.
Consider `Fc1cccc(-c2nccc3[nH]c(-c4n[nH]c5ccc(-c6cnccn6)nc45)nc23)c1` [Compound 520, 3-(4-(3-Fluorophenyl)-1H-imidazo[4,5-c]pyridin-2-yl)-5-(pyrazin-2-yl)-1H-pyrazolo[4,3-b]pyridine], for which, in experiment [1], the EC50 was over 10 µM and the inhibition at 10 µM was 29.4%. Besides, in experiment [2], the inhibition at 10 µM was 6.6% and the EC50 is over 10000 nM. In experiment [3], the Emax came out at 55% and the EC50 was determined as 21 nM.
